For this data set, the system named is Salmonella TA1538 and TA98. Nature of the data set: Ames test (preincubation method, metabolically activated, +x9mix). The note with it: 0 to 5 mg; for Increase (times): maximum increase in the colony of the sample as compared with the solvent control: acetone as solvent control; for Toxicity (mutagenicity): judged against solvent control. Here is the method:
Ames test was conducted as an identical amest test with respect to representative examples of the intermediate of the present invention and control dyes having the same structure as that of the intermediate of the present invention, except that the ring was a pyridine ring instead of the phenyl ring.
The ames test was conducted in such a state that Salmonella TA1538 and TA98 were metabolically activated by a preincubation method (+x9mix). The dye was used in contentrations in five grades in the range of from 0 to 5 mg. Acetone was used as the solvent control. The toxicity was judged based on the maximum increase in the colony of the sample as compared with the solvent control. Specifically, when the increase in the reversion colony was twice or more as compared with that in the case of the control, the mutagenicity was judged as positive, while when the increase in the reversion colony was less than twice as compared with that in the case of the control, the mutagenicity was judged as negative.

Consider `CCN(CC)c1ccc(N=Nc2cn(-c3ccccc3)nc2C)cn1`, for which the “Increase (times): maximum increase in the colony of the sample as compared with the solvent control” value (shortened to “Increase (times): maximum increase”) was 1.5 times and the “Toxicity (mutagenicity)” value is listed as “neg- ative”.
In the same order, the values of `CCN(CC)c1ccc(N=C2C=C(NC(C)=O)C(=O)C(Cl)=C2C)cn1` are 1.5 times and “neg- ative”.
In the case of `CCN(CC)c1ccc(N=Nc2cn(-c3ccccc3)nc2C)cc1`, the “Increase (times): maximum increase” value worked out at 2.2 times and the “Toxicity (mutagenicity)” value was “pos- itive”.
On to `CCN(CC)c1ccc(N=C2C=C(NC(C)=O)C(=O)C(Cl)=C2C)cc1`, for which the “Increase (times): maximum increase” value was determined as 1.7 times and the “Toxicity (mutagenicity)” value is reported as “neg- ative”.

The values are drawn from US5374601A, “Thermal transfer sheet” (Dai Nippon Printing Co., Ltd., priority 1991, dated 1994).
